Results from the NIST ThermoML archive (doi:10.1007/s10765-015-1980-6).
± gives the expanded uncertainty stated by the source.

Experiment: xn = mol fraction of the nth substance listed
Settings: 101 kPa, Liquid; for speed of sound: Frequency=2 MHz; for mass density: Pycnometric method

OCCCCO [1,4-butanediol] + OCCOCCO
speed of sound [m/s], Linear variable-path acoustic interferometer
Settings	x2 = 0	x2 = 0.108	x2 = 0.1977	x2 = 0.2897	x2 = 0.4096	x2 = 0.509	x2 = 0.6116	x2 = 0.6912	x2 = 0.7992	x2 = 0.8838
298.15 K	1601.6 ± 8.2	1568.1 ± 8	1549.9 ± 7.9	1543.5 ± 7.9	1546.2 ± 7.9	1552.2 ± 7.9	1558.9 ± 8	1564.5 ± 8	1571.3 ± 8	1575.3 ± 8
303.15 K	1589.3 ± 8.1	1558.9 ± 7.9	1542 ± 7.9	1535.7 ± 7.8	1538.6 ± 7.8	1544 ± 7.9	1550.2 ± 7.9	1555.3 ± 7.9	1561.2 ± 8	1564.6 ± 8
308.15 K	1577.7 ± 8	1549.8 ± 7.9	1534.4 ± 7.8	1528.2 ± 7.8	1531.1 ± 7.8	1536.3 ± 7.8	1541.8 ± 7.9	1546.4 ± 7.9	1551.7 ± 7.9	1554.7 ± 7.9
313.15 K	1565.6 ± 8	1540.6 ± 7.9	1526.6 ± 7.8	1520.3 ± 7.8	1523.2 ± 7.8	1528.1 ± 7.8	1533.1 ± 7.8	1537.2 ± 7.8	1541.7 ± 7.9	1544.4 ± 7.9

mass density [kg/m3]
Settings	x2 = 0	x2 = 0.108	x2 = 0.1977	x2 = 0.2897	x2 = 0.4096	x2 = 0.509	x2 = 0.6116	x2 = 0.6912	x2 = 0.7992	x2 = 0.8838
298.15 K	1012.6 ± 0.6	1019.9 ± 0.6	1026.6 ± 0.6	1035 ± 0.6	1047 ± 0.6	1057.6 ± 0.6	1069.4 ± 0.6	1078.5 ± 0.6	1090.6 ± 0.6	1100 ± 0.7
303.15 K	1009.6 ± 0.6	1017.1 ± 0.6	1024 ± 0.6	1032.3 ± 0.6	1044.3 ± 0.6	1054.9 ± 0.6	1066.5 ± 0.6	1075.6 ± 0.6	1087.6 ± 0.7	1096.8 ± 0.7
308.15 K	1006.7 ± 0.6	1014.4 ± 0.6	1021.4 ± 0.6	1029.6 ± 0.6	1041.6 ± 0.6	1052.1 ± 0.6	1063.7 ± 0.6	1072.6 ± 0.7	1084.5 ± 0.7	1093.6 ± 0.7
313.15 K	1003.7 ± 0.6	1011.7 ± 0.6	1018.7 ± 0.6	1027 ± 0.6	1038.9 ± 0.6	1049.4 ± 0.6	1060.8 ± 0.6	1069.6 ± 0.7	1081.3 ± 0.7	1090.3 ± 0.7

OCCOCCO [diethylene glycol] + CCCCO
Settings	mass density, 298.15 K [kg/m3]	mass density, 303.15 K [kg/m3]	mass density, 308.15 K [kg/m3]	mass density, 313.15 K [kg/m3]	speed of sound, 298.15 K [m/s]	speed of sound, 303.15 K [m/s]	speed of sound, 308.15 K [m/s]	speed of sound, 313.15 K [m/s]
x1 = 0.1095	840.7 ± 0.6	837 ± 0.6	833.4 ± 0.6	829.7 ± 0.6	1265.9 ± 6.8	1249.5 ± 6.7	1232.3 ± 6.6	1215.9 ± 6.6
x1 = 0.2096	872.6 ± 0.6	868.9 ± 0.6	865.3 ± 0.6	861.6 ± 0.6	1294 ± 7	1277.8 ± 6.9	1261.3 ± 6.8	1245.8 ± 6.7
x1 = 0.2955	899.7 ± 0.6	896.1 ± 0.6	892.4 ± 0.6	888.8 ± 0.6	1320.9 ± 7.1	1305.3 ± 7	1289 ± 6.9	1273.5 ± 6.9
x1 = 0.3874	928.5 ± 0.6	924.9 ± 0.6	921.2 ± 0.6	917.6 ± 0.7	1350.8 ± 7.3	1335.3 ± 7.2	1318.7 ± 7.1	1303.2 ± 7
x1 = 0.5122	967.1 ± 0.6	963.5 ± 0.6	959.9 ± 0.7	956.3 ± 0.7	1392.3 ± 7.5	1377.7 ± 7.4	1361.9 ± 7.3	1347.4 ± 7.2
x1 = 0.592	991.5 ± 0.6	988 ± 0.7	984.4 ± 0.7	980.9 ± 0.7	1419.3 ± 7.6	1406 ± 7.6	1391.6 ± 7.5	1378 ± 7.4
x1 = 0.677	1017.3 ± 0.6	1013.7 ± 0.7	1010.2 ± 0.7	1006.7 ± 0.7	1448.9 ± 7.8	1436.8 ± 7.7	1424.2 ± 7.6	1411.6 ± 7.6
x1 = 0.7986	1053.5 ± 0.7	1050.1 ± 0.7	1046.6 ± 0.7	1043.1 ± 0.7	1492.7 ± 8	1481.1 ± 7.9	1470.1 ± 7.9	1459.2 ± 7.8
x1 = 0.896	1082.3 ± 0.7	1078.8 ± 0.7	1075.4 ± 0.7	1072 ± 0.7	1531.3 ± 8.2	1520.6 ± 8.2	1510 ± 8.1	1500 ± 8
x1 = 1	1112.7 ± 0.7	1109.3 ± 0.7	1105.9 ± 0.7	1102.5 ± 0.7	1579.3 ± 8.5	1568 ± 8.4	1557.3 ± 8.3	1546.1 ± 8.3

OCCOCCO [diethylene glycol] + CCC(C)O
speed of sound [m/s], Linear variable-path acoustic interferometer
Settings	x1 = 0.1097	x1 = 0.2096	x1 = 0.2951	x1 = 0.3876	x1 = 0.512	x1 = 0.592	x1 = 0.6771	x1 = 0.7984	x1 = 0.8962	x1 = 1
298.15 K	1243.1 ± 6.4	1273.6 ± 6.5	1300.5 ± 6.7	1330.6 ± 6.8	1372 ± 7	1400 ± 7.2	1431.4 ± 7.3	1480.5 ± 7.6	1525.1 ± 7.8	1579.3 ± 8.1
303.15 K	1225.2 ± 6.3	1256.7 ± 6.4	1283.5 ± 6.6	1313.5 ± 6.7	1356.2 ± 6.9	1386.1 ± 7.1	1418.2 ± 7.2	1468.2 ± 7.5	1513.4 ± 7.7	1568 ± 8
308.15 K	1207.6 ± 6.2	1239.8 ± 6.3	1266 ± 6.5	1296 ± 6.6	1339.4 ± 6.8	1370.1 ± 7	1403 ± 7.2	1454.1 ± 7.4	1501.7 ± 7.7	1557.3 ± 8
313.15 K	1190.1 ± 6.1	1222.7 ± 6.3	1249.1 ± 6.4	1279.3 ± 6.5	1323.4 ± 6.8	1354.9 ± 6.9	1389.2 ± 7.1	1441.2 ± 7.4	1490 ± 7.6	1546.1 ± 7.9

mass density [kg/m3]
Settings	x1 = 0.1097	x1 = 0.2096	x1 = 0.2951	x1 = 0.3876	x1 = 0.512	x1 = 0.592	x1 = 0.6771	x1 = 0.7984	x1 = 0.8962	x1 = 1
298.15 K	838.7 ± 0.6	871.6 ± 0.6	899.5 ± 0.6	929.3 ± 0.6	968.6 ± 0.6	993.4 ± 0.6	1019.2 ± 0.6	1055.1 ± 0.6	1083.2 ± 0.7	1112.7 ± 0.7
303.15 K	834.7 ± 0.7	867.7 ± 0.6	895.7 ± 0.6	925.5 ± 0.7	964.9 ± 0.7	989.8 ± 0.7	1015.8 ± 0.7	1051.8 ± 0.7	1079.9 ± 0.7	1109.3 ± 0.7
308.15 K	830.7 ± 0.7	863.9 ± 0.6	891.9 ± 0.7	921.8 ± 0.7	961.2 ± 0.7	986.2 ± 0.7	1012.3 ± 0.7	1048.4 ± 0.7	1076.6 ± 0.7	1105.9 ± 0.7
313.15 K	826.8 ± 0.7	860.1 ± 0.7	888.1 ± 0.7	918 ± 0.7	957.6 ± 0.7	982.6 ± 0.7	1008.9 ± 0.7	1045.1 ± 0.7	1073.3 ± 0.7	1102.5 ± 0.7
